# Where “and” joins values, the source holds several entries; their conditions need not be identical. Identical values can stand only once. Entries after “also recorded” stand apart in the source; their conditions may differ. Like-named read-outs stand apart in the source and are kept apart here.
# Tests used:
# [1] = target: DdlA (Mycobacterium tuberculosis, UniProt P9WP31); assay type: biochemical; conditions: for Kcat: Vmax divided by enzyme concentration
# From the text: The activity of DdlA was monitored by coupling with pyruvate kinase (PK) and lactate dehydrogenase (LDH; Sigma-Aldrich) to detect the release of ADP. […] The assay system was monitored via a Perkin Elmer EnSpire® 2300 Multimode Plate Reader (PerkinElmer, MA, United States) by detecting decreases in NADH.
# The calibration curve of the ultraviolet absorption of NADH at 340 nm to its concentrations was fabricated before studying the enzymatic kinetics of DdlA. The kinetic parameters of DldA were determined using serial twofold dilutions of one substrate (from 1 mM to 31.25 μM), while the other substrate was held constant at 1 mM. Km and Vmax values were calculated using non-linear regression of the Michaelis-Menten model in GraphPad Prism 5.0 (GraphPad Software, Inc., San Diego, CA, United States). Kcat was calculated based on the molecular weight of DdlA (42 kDa).
# [2] = target: Mtb DdlA (Mycobacterium tuberculosis, UniProt P9WP31); assay: DdlA inhibition, PK/LDH-coupled assay detecting ADP release (NADH decrease); assay type: biochemical
# [3] = tested on: Mtb H37Rv; assay: microbe, parasite or virus in culture; assay type: cell-based, Mycobacterium tuberculosis; conditions: for MIC: Mycobacterium tuberculosis, 336 h
# [4] = tested on: clinical Mtb strains; assay: microbe, parasite or virus in culture; assay type: cell-based, Mycobacterium tuberculosis; conditions: for MIC: Mycobacterium tuberculosis
# [5] = tested on: Mtb H37Rv; assay: Mouse model of TB, pulmonary bacterial load; assay type: in vivo, Balb/c mice; conditions: 25 mg/kg by gavage, 15 administrations (five times per week); vehicle 5.58
# From the text: Specific pathogen-free (SPF) male Balb/c mice were purchased from the Institute of Laboratory Animal Sciences at the Chinese Academy of Medical Sciences and Peking Union Medical College. All animal experiments were supervised and approved by the Institutional Animal Care and Use Committee of the Institute of Medicinal Biotechnology. Twenty-six mice (6–8 weeks old, 18–20 g) were infected with Mtb H37Rv (about 100 CFU) via the 099C A4224 Inhalation Exposure System (Glas-col, Terre Haute, IN, United States). At 15 days after inoculum, two mice were anesthetized and decapitated to confirm the success of infection. DCS, INH, IMB-0283, and vehicle (0.5% CMC-Na) were administered through a gavage route (six mice per group). All chemicals were dosed at 25 mg/kg. Mice were sacrificed after 15 administrations (five times per week) to quantify pulmonary bacterial loads via counting CFUs.
# [6] = tested on: HepG2 cells
# [7] = tested on: Vero green-monkey kidney cells; assay: Cytotoxicity assay (MTT), Vero; conditions: Vero TC50 relative to H37Rv MIC
# [8] = tested on: HepG2 cells; assay: Cytotoxicity assay (MTT), HepG2; conditions: for SI: HepG2 TC50 relative to H37Rv MIC
# [9] = tested on: Mtb H37Rv; assay: Morphology of Mtb by scanning electron microscopy; assay type: cell-based, Mycobacterium tuberculosis; conditions: 0.35 μg/mL
# [10] = tested on: Vero green-monkey kidney cells; conditions: 2 days
# [11] = tested on: C[C@@H](N)C(=O)O; assay: purified protein, by the assay type; conditions: pH 8.0; 37.0 °C
# [12] = substrate of DdlA, other substrate at 1 mM
# [13] = Dixon plot, Figure 4 panels A, C, substrate ATP inferred, read-out: Ki for DdlA (ATP) (converted)
# [14] = Dixon plot, competing substrate ATP, read-out: Ki for DdlA (ATP) (converted)
# [15] = Mtb H37Rv, 2 weeks at 37°C, read-out: MIC
# Chain of DdlA (P9WP31 whole entry, looked up): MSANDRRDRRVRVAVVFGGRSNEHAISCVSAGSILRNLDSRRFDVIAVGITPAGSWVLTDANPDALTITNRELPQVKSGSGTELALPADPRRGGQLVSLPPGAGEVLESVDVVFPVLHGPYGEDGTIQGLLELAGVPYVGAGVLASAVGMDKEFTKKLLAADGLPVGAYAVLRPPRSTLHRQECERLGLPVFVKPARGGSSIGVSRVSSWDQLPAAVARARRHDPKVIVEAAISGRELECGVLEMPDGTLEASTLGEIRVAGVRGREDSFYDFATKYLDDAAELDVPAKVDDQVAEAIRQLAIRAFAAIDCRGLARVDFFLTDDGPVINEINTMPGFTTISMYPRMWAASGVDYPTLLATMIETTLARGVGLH
# Chain of Mtb DdlA (P9WP31 whole entry, looked up): as above
molecule,measurement,setting,value
Nc1ncnc2c1ncn2[C@@H]1O[C@H](COP(=O)(O)OP(=O)(O)OP(=O)(O)O)[C@@H](O)[C@H]1O [ATP],Kcat,[1],405.8 min^–1 and 383.00 ± 14.14 min^–1
same,Km,[1]; [12],360 ± 30.5 µM
same,Vmax,[1]; [12],20.29 μMmin^–1 and 19.15 ± 0.705 μMmin^–1
"C[C@@H](N)C(=O)O [D-Ala, D-alanine]",Kcat,[1],568.79 ± 48.93 min^–1
same,Vmax,[1]; [12],28.44 ± 2.444 μMmin^–1
"N[C@@H]1CON=C1O [DCS, D-cycloserine, reference compound]",Ki,[2]; [13],106 µM
same,Ki,[2]; [14],107 µM
same,Ki,[2]; Ki for DdlA (D-Ala),182 µM
same,MIC,[3]; [15],16 µg/mL
same,MICs to several clinical strains,[4]; range over clinical strains,did not show any inhibitory effect
same,Mtb load in mouse lungs,[5],did not yield any such treatment efficacy; also recorded: did not yield any antibacterial activity; also recorded: showed no antibacterial activity
same,SI index,[6]; human (HepG2) and green monkey (Vero),about 80
same,SI,[7],127.75
same,SI,[8],86.25
OC1(c2ccc(OC(F)F)cc2)C[N+](c2ccccc2)=C2CCCCN21 (centres unmarked) [IMB-0283],Ki,[2]; [13],5.43 µM
same,Ki,[2]; [14],4.44 µM
same,Ki,[2]; Ki for DdlA (D-Ala),32.6 µM and 39.9 µM
same,Inhibitory mode,[2]; Lineweaver-Burk and Dixon plots,competed with both substrates of DdlA
same,IC50,[2]; mean of n = 3,6.16 µM
same,IC50,[2]; printed in Figure 3B,7.62 µM
same,MIC,[3]; [15],0.5 µg/mL
same,MIC,"[4]; range over clinical strains, read-out: MICs to several clinical strains",0.5 to 4 µg/mL
same,MIC,"[4]; strain FJ05060, S to INH, RMP, EMB, STR, CPM, KAN, OFX, read-out: MIC",0.5 µg/mL
same,MIC,"[4]; strain FJ05120, R to INH, RMP, read-out: MIC",2 µg/mL
same,MIC,"[4]; strain FJ05189, R to INH, RMP, read-out: MIC",1 µg/mL
same,MIC,"[4]; strain FJ05195, R to INH, RMP, EMB, STR, KAN, OFX, S to CPM, read-out: MIC",4 µg/mL
same,MIC,"[4]; strain FJ05349, S to INH, RMP, EMB, STR, CPM, KAN, OFX, read-out: MIC",0.5 µg/mL
same,MIC,"[4]; strain xz, R to INH, RMP, STR, CPM, OFX, S to EMB, KAN, read-out: MIC",4 µg/mL
same,Morphology of Mtb,[9]; 12 h,typical long-rod morphology
same,Morphology of Mtb,[9]; 7 days,"shrunken, shorter, and fragmented"
same,Mtb load in mouse lungs,[5],4.40 log CFU/mL
same,TC50,"[6]; human, 2 days",115.4 µg/mL
same,TC50,[10],249.8 µg/mL
same,SI,[7],499.6
same,SI,[8],230.8
same,SI index,[8]; cell line not specified (HepG2 and Vero),greater than 200
"NNC(=O)c1ccncc1 [INH, isoniazid]",Reduction of MIC when combined with IMB-0283,"[3]; H37Rv, IMB-0283 at 0.125 μg/mL",eightfold
same,MIC when combined with IMB-0283,"[3]; H37Rv, IMB-0283 at 0.125 μg/mL (0.25 × MIC)",0.016 µg/mL
same,MIC,[3]; [15],0.125 µg/mL
same,Mtb load in mouse lungs,[5],3.29 log CFU/mL
"CO[C@H]1/C=C/O[C@@]2(C)Oc3c(C)c(O)c4c(O)c(c(/C=N/N5CCN(C)CC5)c(O)c4c3C2=O)NC(=O)/C(C)=C\C=C\[C@H](C)[C@H](O)[C@@H](C)[C@@H](O)[C@@H](C)[C@H](OC(C)=O)[C@@H]1C [RMP, rifampin]",MIC when combined with IMB-0283,[3],0.016 µg/mL
same,MIC,[3]; H37RV,0.063 µg/mL
(Mycobacterium tuberculosis H37Rv),Vmax,[11],28.4 µM/min
same,kcat,[11],9.48 s⁻¹
